Where two headings read alike, the source gives them in different places.
Experiments:
[1] = test system: Passive cutaneous anaphylaxis (P.C.A.); assay: Inhibition of passive cutaneous anaphylaxis (P.C.A.); format: in vivo, rat (Sprague-Dawley); settings: Rattus norvegicus, 1 h; rats, 2 × 10^-5 mol/kg p.o., one hour before ovalbumin challenge
How it was run: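 Sprague-Dawley rats (150-180 g) were sensitized intradermally with rat IgE-rich anti-ovalbumin serum and challenged 24 h later with i.v. ovalbumin 8.25 mg/kg plus Evans blue. Compound was given orally at 2×10^-5 mol/kg 1 h before challenge. Dye exudation was scored visually at 30 min as % inhibition versus vehicle controls.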

[2] = test system: Histamine-induced anaphylactoid reactions; assay: Inhibition of anaphylactoid cutaneous reaction induced by histamine; format: in vivo, rat (Sprague-Dawley); settings: Rattus norvegicus, 1 h; rats, 2 × 10^-5 mol/kg p.o., one hour before challenge; histamine intradermal
How it was run: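 Animals received 50 μl intradermal histamine (0.8 mg/ml in saline) in the flank opposite the antiserum site, just before i.v. ovalbumin plus blue dye. Test substance at 2×10^-5 mol/kg was given orally 1 h before challenge in water with 1% DMF and 1% Tween 20. Blue-dye exudation was scored visually at 30 min, giving % inhibition versus solvent controls.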

[3] = Determination of the minimum toxic dose; design: species or system male mice; settings: mouse, in vivo, po, 300 mg/kg, 1440 min
Method: 2. Determination of the minimum toxic dose.
Maximum doses of 300 mg/kg of the test substance were administered orally to male mice weighing 20-25 g. The animals were observed carefully for 3 hours for toxicity symptoms. In addition, all symptoms and deaths over a period of 24 hours after administration were recorded. Associated symptoms were also observed and recorded. If death or severe toxic symptoms were observed, further mice were administered increasingly lower doses. The lowest dose which caused death or severe toxic symptoms is given as the minimum toxic dose in the following Table B.

[4] = target: T1, histamine (H1) receptor (Cavia porcellus, UniProt P31389); assay: Antihistamine (H1) effect: inhibition of histamine-induced contractions of isolated guinea-pig ileum in vitro; format: cell-based, guinea-pig (Dunkin Hartley); settings: histamine 5 × 10^-6 mol/l, test substance 10^-6 mol/l
T1 construct: isolated smooth muscle of the guinea-pig ileum; from tissue; host or cells: isolated ileum segments of Dunkin Hartley guinea-pigs
How it was run: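 Dunkin Hartley guinea-pig ileum segments (300-500 g animals) in Krebs-Henseleit, pH 7.4, 5% CO2/95% O2, 1 g tension, isotonic recording. Compound at 10^-6 mol/l for 30 s before histamine 5×10^-6 mol/l; contraction measured over 30 s, repeated 10 min after washout, expressed as % inhibition.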

[5] = after 30 sec., read-out: in vitro (H1) receptor antagonism % inhibitory effect on histamine-induced contractions of the Ileum, after 30 sec.
[6] = after 10 min. (after washing), read-out: in vitro (H1) receptor antagonism % inhibitory effect on histamine-induced contractions of the Ileum, after 10 min.

T1 sequence (P31389 whole entry): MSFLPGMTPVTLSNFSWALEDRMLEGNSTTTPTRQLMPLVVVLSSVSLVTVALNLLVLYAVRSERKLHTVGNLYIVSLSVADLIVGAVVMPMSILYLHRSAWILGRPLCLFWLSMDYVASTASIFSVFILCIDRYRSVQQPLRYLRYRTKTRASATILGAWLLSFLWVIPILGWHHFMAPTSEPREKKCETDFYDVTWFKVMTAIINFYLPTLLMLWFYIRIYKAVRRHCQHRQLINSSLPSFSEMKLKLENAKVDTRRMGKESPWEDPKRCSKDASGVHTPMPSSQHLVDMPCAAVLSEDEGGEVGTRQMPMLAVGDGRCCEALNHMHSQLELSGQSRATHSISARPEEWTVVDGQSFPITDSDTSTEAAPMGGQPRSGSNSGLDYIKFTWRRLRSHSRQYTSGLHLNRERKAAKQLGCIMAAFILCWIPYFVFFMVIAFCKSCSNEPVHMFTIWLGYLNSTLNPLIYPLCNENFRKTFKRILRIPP

| Structure (SMILES) | inhibition in vivo at 20 µmol/kg [1] [%] | inhibition in vivo at 20 µmol/kg [2] [%] | Minimum toxic dose (lowest dose which caused death or severe toxic symptoms) [3] [mg/kg] | inhibition at 1 µM [4, 5] [%] | inhibition at 1 µM [4, 6] [%] |
| --- | --- | --- | --- | --- | --- |
| Cc1ccnc(N2CCN(CCc3c(C)n4c5c(cccc35)CCC4c3ccccc3)CC2)c1 (stereo not shown) [Example 3, 5,6-dihydro-2-methyl-4-phenyl-1-{2-[4-(4-methylpyridine-2-yl)piperazin-1-yl]-ethyl}-4H-pyrrolo[3,2,1-ij]quinoline] | 100 | 93 | 300 | 15 | 57 |
| Cc1ccnc(N2CCN(CCc3c(C)n4c5c(cccc35)CCC4)CC2)c1 [Example 1, 5,6-Dihydro-2-methyl-1-{2-[4-(4-methylpyridin-2-yl)piperazin-1-yl]ethyl}-4H-pyrrolo[3,2,1-ij]quinoline] | 98 | 85 | 100 | 42 | 88 |
| Cc1ccnc(N2CCN(CCc3c(C)n4c5c(cccc35)SCC4)CC2)c1 [Example 11, 5-Methyl-6-{2-[4-(4-methylpyridin-2-yl)piperazin-1-yl]ethyl}-2,3-dihydro-pyrrolo[1,2,3-de]-1,4-benzo-thiazine] | 100 | 93 | 100 | 21 | 84 |
| Cc1ccnc(N2CCN(CCc3c(C)n4c5c(ccc(Cl)c35)OCC4)CC2)c1 [Example 35] | 75 | 58 | 300 | 25 | 78 |
| Cc1ccc(N2CCN(CCc3c(C)n4c5c(cccc35)CCC4)CC2)nc1 [Example 42] | 50 | 45 | 100 | 52 | 54 |
| Cc1ccnc(N2CCN(CCc3c(C)n4c5c(cc(C)cc35)CCC4)CC2)c1 [Example 54] | 93 | 73 | 300 | 8 | 94 |
| CC(=O)c1cc2c3c(c1)c(CCN1CCN(c4cc(C)ccn4)CC1)c(C)n3CCC2 [Example 67] | 100 | 95 |  | 59 | 93 |
| Cc1cc2c3c(c1)c(CCN1CCC(C(=O)c4ccc(F)cc4)CC1)c(C)n3CCC2 [Example 55] | 80 | 50 | 300 |  |  |
| Cc1ccnc(N2CCN(CCc3c(CO)n4c5c(cccc35)CCC4)CC2)c1 [Example 16, 5,6-dihydro-2-hydroxymethyl-1-{2-[4-(4-methylpyridin-2-yl)piperazin-1-yl]ethyl}-4H-pyrrolo[3,2,1-ij]quinoline] | 85 | 73 |  | 42 | 55 |
| Cc1ccnc(N2CCN(CCc3c(C)n4c5c(cccc35)C(C)CC4)CC2)c1 (stereo not shown) [Example 57] | 100 | 95 | 300 | 20 | 80 |
| Cc1ccnc(N2CCN(CCc3cn4c5c(cccc35)CCC4)CC2)c1 [Example 13, 5,6-Dihydro-1-{2-[4-(4-methylpyridin-2-yl)piperazin-1-yl]ethyl}-4H-pyrrolo[3,2,1-ij]quinoline] | 83 | 68 | 100 | 33 | 63 |
| Cc1ccnc(N2CCN(CCc3c(C)n4c5c(cc(Br)cc35)CCC4)CC2)c1 [Example 9, 8-Bromo-2-methyl-1-{2-[4-(4-methylpyridin-2-yl)piperazin-1-yl]ethyl}-5,6-dihydro-4H-pyrrolo[3,2,1-ij]quinoline] | 90 | 80 |  | 10 | 78 |
| CC(=O)Oc1cc2c3c(c1)c(CCN1CCN(c4cc(C)ccn4)CC1)c(C)n3CCC2 [Example 24, 8-Acetoxy-5,6-dihydro-2-methyl-1-{2-[4-(4-methyl-pyridin-2-yl)piperazin-1-yl]ethyl}-4H-pyrrolo[3,2,1-ij]quinoline] | 55 | 60 |  | 81 | 94 |
| Cc1ccnc(N2CCN(CCc3c(C)n4c5c(cc(C(O)C(C)C)cc35)CCC4)CC2)c1 (stereo not shown) [Example 19, 5,6-Dihydro-8-(1-hydroxy-2-methylpropyl)-2-methyl-1-{2-[4-(4-methylpyridin-2-yl)piperazin-1-yl]ethyl}-4H-pyrrolo-[3,2,1-ij]quinoline] | 95 | 95 |  | 26 | 83 |
| CCCCC1CCc2cc(OC)cc3c(CCN4CCN(c5cc(C)ccn5)CC4)c(C)n1c23 (stereo not shown) [Example 63] | 100 | 95 |  | 17 | 67 |
| CCc1c(C(O)CN2CCN(c3cc(C)ccn3)CC2)c2cccc3c2n1CCC3 (stereo not shown) [Example 14, 2-Ethyl-5,6-dihydro-1-{2-[4-(4-methylpyridin-2-yl)piperazin-1-yl]-1-hydroxyethyl}-4H-pyrrolo[3,2,1-ij]quinoline] | 65 | 25 | 300 |  |  |
| Cc1ccnc(N2CCN(CCc3c(C)n4c5c(ccc(C(O)C(C)C)c35)SCC4)CC2)c1 (stereo not shown) [Example 90] | 81 | 77 |  | 19 | 88 |
| Cc1c(CCN2CCN(c3ccccn3)CC2)c2cccc3c2n1CCC3 [Example 37] | 60 | 58 |  | 24 | 61 |
| Cc1ccnc(N2CCN(CCc3c(C)n4c5c(cc([N+](=O)[O-])cc35)CCC4)CC2)c1 [Example 10, 2-Methyl-8-nitro-1-{2-[4-(4-methylpyridin-2-yl)-piperazin-1-yl]ethyl}-5,6-dihydro-4H-pyrrolo[3,2,1-ij]quinoline] | 83 | 75 |  | 47 | 92 |

— patent US5324725A, “7-fused 2-(piperazinoalkyl) indole derivatives, intermediates and compositions thereof” (Kali-Chemie Pharma GmbH, priority 1991, dated 1994)
